Columns and labels:
[1] = test system: β-glucosidases; details: Kolarova et al; cited from earlier work
[2] = test system: articular inflammation; details: cited from earlier work
[3] = test system: antigen stimulated mice spleen cells; details: in vitro; cited from earlier work
[4] = test system: interleukin-2 synthesis; details: antigen stimulated mice spleen cells in vitro; cited from earlier work
[5] = test system: interleukin-10 synthesis; details: antigen stimulated mice spleen cells in vitro; cited from earlier work
[6] = test system: IFN synthesis; details: antigen stimulated mice spleen cells in vitro; cited from earlier work
[7] = test system: feline herpes infection; details: reactivation of feline herpes infection; Roberts et al; cited from earlier work
[8] = acid conditions of the stomach; cited from earlier work
[9] = test system: FGF receptors; details: Yeh et al; cited from earlier work
[10] = test system: C-type lectin-like domain of a recombinant natural killer cell receptor; details: Kogelberg et al; cited from earlier work
[11] = biological target: hepatocyte growth factor (Homo sapiens, UniProt P14210); details: Zhou et al; cited from earlier work
[12] = biological target: follistatin (Rattus norvegicus, UniProt P21674); details: Innis et al; cited from earlier work
[13] = biological target: pro-inflammatory chemokine MCP-1 (Homo sapiens, UniProt P13500); details: Yonghao et al; cited from earlier work
[14] = Cahalon et al; cited from earlier work
[15] = test system: IL-1α synthesis; experiment: PHA stimulated human whole blood cytokine synthesis: IL-1α; type: cell-based; details: 0.01 μM, days 1-4
Procedure: (§1) Blood was taken from a healthy young volunteer, into heparin Vacutainers®. Whole-blood was diluted to give a final concentration of 1/10 in culture medium (CM). CM consisted of RPMI 1640 with L-glutamine, penicillin and streptomycin. PHA (phytohaemagglutinin) solution and N-acetyl-β,β-diglucosylamine octasulphate (DOS) and PHA solution were added to non-control samples. Final drug concentrations tested were 100 μM, 1 μM, 0.1 μM and 0.01 μM. All samples were tested in triplicate.
(§2) Reagents were placed in four sets of 24-well (6×4) flat-bottomed plates (Corning US) and incubated for 1, 2, 3 and 4 days respectively (incubator conditions: 37° C., humid and 5% CO2). […]
(§3) The protocol of Lagrelius et al. was followed (Cytokine, 2006, 33, pp. 156-165). The culture supernatants were analysed once for concentrations of IL-1α, IL-1β, IL-2, IL-4, IL-5, IL-6, IL-7, IL-10, IL-12, IL-13, IL-17, IFNγ, GCSF, GM-CSF, MCP-1, RANTES, VEGF and TNFα. The cytokines were measured simultaneously using a Bio-Plex assay. […] A monoclonal antibody specific for each cytokine of interest is coupled onto a particular set of beads with a known internal fluorescence, and several combinations of cytokine antibody coated beads can be included and thus multiple cytokines are measured simultaneously. […] A minimum of 100 beads per region were analysed. […]

[16] = test system: IL-1β synthesis; experiment: PHA stimulated human whole blood cytokine synthesis: IL-1β; type: cell-based; details: 0.01 μM, days 1-4
Procedure: as §1, §2, §3

[17] = test system: IL-2 synthesis; experiment: PHA stimulated human whole blood cytokine synthesis: IL-2; type: cell-based; details: 0.01 μM, days 1-4
Procedure: as §1, §2, §3

[18] = test system: IL-4 synthesis; experiment: PHA stimulated human whole blood cytokine synthesis: IL-4; type: cell-based; details: 0.01 μM, days 1-4
Procedure: as §1, §2, §3

[19] = test system: IL-5 synthesis; experiment: PHA stimulated human whole blood cytokine synthesis: IL-5; type: cell-based; details: 0.01 μM, days 1-4
Procedure: as §1, §2, §3

[20] = test system: IL-6 synthesis; experiment: PHA stimulated human whole blood cytokine synthesis: IL-6; type: cell-based; details: 0.01 μM, days 1-4
Procedure: as §1, §2, §3

[21] = test system: IL-10 synthesis; experiment: PHA stimulated human whole blood cytokine synthesis: IL-10; type: cell-based; details: 0.01 μM, days 1-4
Procedure: as §1, §2, §3

[22] = test system: IL-13 synthesis; experiment: PHA stimulated human whole blood cytokine synthesis: IL-13; type: cell-based; details: 0.01 μM, days 1-4
Procedure: as §1, §2, §3

[23] = test system: IL-17 synthesis; experiment: PHA stimulated human whole blood cytokine synthesis: IL-17; type: cell-based; details: 0.01 μM, days 1-4
Procedure: as §1, §2, §3

[24] = test system: IFNγ synthesis; experiment: PHA stimulated human whole blood cytokine synthesis: IFNγ; type: cell-based; details: 0.01 μM, days 1-4
Procedure: as §1, §2, §3

[25] = test system: GCSF synthesis; experiment: PHA stimulated human whole blood cytokine synthesis: GCSF; type: cell-based; details: 0.01 μM, days 1-4
Procedure: as §1, §2, §3

[26] = test system: GM-CSF synthesis; experiment: PHA stimulated human whole blood cytokine synthesis: GM-CSF; type: cell-based; details: 0.01 μM, days 1-4
Procedure: as §1, §2, §3

[27] = test system: TNFα synthesis; experiment: PHA stimulated human whole blood cytokine synthesis: TNFα; type: cell-based; details: 0.01 μM, days 1-4, Bio-Plex
Procedure: as §1, §2, §3

[28] = test system: IL-7 synthesis; experiment: PHA stimulated human whole blood cytokine synthesis: IL-7; type: cell-based; details: 0.01 μM, days 1-4
Procedure: as §1, §2, §3

[29] = test system: VEGF synthesis; experiment: PHA treated human whole blood cytokine synthesis: VEGF; type: cell-based; details: 0.01 μM; human whole blood in which VEGF synthesis has been inhibited by PHA; days 1-4
Procedure: as §1, §2, §3

[30] = test system: TNFα synthesis; experiment: TNFα synthesis in whole blood stimulated with 5 μg/ml PHA; type: cell-based; details: human whole blood 1:10, 5 μg/ml PHA for 4 days; 0.01, 0.1 or 1 μM; ELISA days 1-4
Procedure: Human whole blood was diluted 1:10 in RPMI and stimulated with 5 μg/ml phytohaemagglutinin (PHA) for 4 days in the absence or presence of N-acetyl-β,β-diglucosylamine octasulphate (DOS) or N-acetyl-β,β-diglucosylamine oligosulphate 1200 at concentrations of 0.01, 0.1 or 1 μM. The TNFα concentrations were assayed by ELISA on days 1, 2, 3 and 4.

[31] = test system: TNFα synthesis; experiment: LPS stimulated U937 macrophage TNFα synthesis; type: cell-based, human; details: PMA differentiated U937; 80 nM lps 72 hours; 0.10, 1.00, 10.00 and 100.00 μM
Procedure: U937 human monocytes were incubated with 5 μg/ml PMA (phorbol myristate acetate) for 5 days in order to induce differentiation. N-acetyl-β,β-diglucosylamine octasulphate (DOS) was added to the macrophages produced at concentrations of 0 (control), 0.10, 1.00, 10.00 and 100.00 μM.

[32] = test system: inflamed joints; details: Ronca et al; cited from earlier work

Sequence of follistatin (P21674 93-165 limits assumed): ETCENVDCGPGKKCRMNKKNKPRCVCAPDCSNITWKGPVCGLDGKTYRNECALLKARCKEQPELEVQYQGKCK
Sequence of pro-inflammatory chemokine MCP-1 (P13500 24-99): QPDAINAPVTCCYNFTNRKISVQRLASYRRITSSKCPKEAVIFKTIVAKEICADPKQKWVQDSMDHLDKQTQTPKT
Sequence of hepatocyte growth factor (P14210 31-127 limits assumed, species assumed): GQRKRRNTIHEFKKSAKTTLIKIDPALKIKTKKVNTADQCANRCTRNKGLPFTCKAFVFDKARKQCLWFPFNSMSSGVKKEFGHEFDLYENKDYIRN

## OC[C@H]1O[C@@H](N[C@@H]2O[C@H](CO)[C@@H](O)[C@H](O)[C@H]2O)[C@H](O)[C@@H](O)[C@@H]1O [di-β-D-glucosylamine]
[1]
  inhibition of β-glucosidases: inhibit β-glucosidases
[2]; mice, parenteral routes, Bolton et al
  articular inflammation: inhibits articular inflammation
[2]; oral route
  activity by the oral route: inactive
[3]
  antigen induced immune cell proliferation: inhibits
[4]
  interleukin-2 synthesis: inhibits
[5]
  interleukin-10 synthesis: inhibits
[6]
  IFN synthesis: inhibits
[7]
  development of ocular inflammation: prevents the development of ocular inflammation
[8]
  hydrolysis of the glycosylamine group: readily hydrolysed

## 2-hydroxysucrose heptasulphate
[9]
  FGF dependent dimerisation of FGF receptors: much lesser extent

## 4,6-dihydroxysucrose hexasulphate
[9]
  FGF dependent dimerisation of FGF receptors: not at all

## O=S(=O)(O)OC[C@H]1O[C@@](COS(=O)(=O)O)(O[C@H]2O[C@H](COS(=O)(=O)O)[C@@H](OS(=O)(=O)O)[C@H](OS(=O)(=O)O)[C@H]2OS(=O)(=O)O)[C@@H](OS(=O)(=O)O)[C@@H]1OS(=O)(=O)O [sucrose octasulphate]
[9]
  FGF dependent dimerisation of FGF receptors: induced FGF dependent dimerisation of FGF receptors
[10]
  binding to natural killer cell receptor C-type lectin-like domain: bind
[11]
  binding to hepatocyte growth factor: bind
[12]
  binding to follistatin: bind
[13]
  binding to MCP-1: bind

## CC(=O)N[C@H]1C(O)O[C@H](CO)[C@@H](O[C@@H]2OC(C(=O)O)=C[C@H](O)[C@H]2O)[C@@H]1O (stereo partly drawn) [desulphated heparin disaccharide, O-(α-L-ido-4-enepyranosyluronic acid)-(1→4)-2-deoxy-N-acetyl-D-glucoseamine]
[14]
  effectiveness as an anti-inflammatory agent: ineffective

## CC(=O)N([C@@H]1O[C@H](COS(=O)(=O)O)[C@@H](OS(=O)(=O)O)[C@H](OS(=O)(=O)O)[C@H]1OS(=O)(=O)O)[C@@H]1O[C@H](COS(=O)(=O)O)[C@@H](OS(=O)(=O)O)[C@H](OS(=O)(=O)O)[C@H]1OS(=O)(=O)O [N-acetyl-β,β-diglucosylamine octasulphate]
[15]
  PHA stimulated synthesis of IL-1α: inhibits
[16]
  PHA stimulated synthesis of IL-1β: inhibits
[17]
  PHA stimulated synthesis of IL-2: inhibits
[18]
  PHA stimulated synthesis of IL-4: inhibits
[19]
  PHA stimulated synthesis of IL-5: inhibits
[20]
  PHA stimulated synthesis of IL-6: inhibits
[21]
  PHA stimulated synthesis of IL-10: inhibits
[22]
  PHA stimulated synthesis of IL-13: inhibits
[23]
  PHA stimulated synthesis of IL-17: inhibits
[24]
  PHA stimulated synthesis of IFNγ: inhibits
[25]
  PHA stimulated synthesis of GCSF: inhibits
[26]
  PHA stimulated synthesis of GM-CSF: inhibits
[27]
  PHA stimulated synthesis of TNFα: inhibits
[28]
  level of IL-7: increased
[29]
  level of VEGF: increased
[30]
  inhibition of TNFα synthesis: effectively inhibit TNFα synthesis
[31]
  inhibition of TNFα synthesis: inhibited TNFα synthesis at all concentrations down to 0.1 μM

## chondroitin sulphate
[32]
  inflammatory cell accumulation and inflammation: reduces inflammatory cell accumulation and inflammation

Reference: US9045523B2, “Compounds” (PHAROS PHARMACEUTICALS INC., priority 2006, dated 2015)
